The target of assay [1] is T1, Aβ40 (amyloid beta 40) fibrils (Homo sapiens, UniProt P05067).
T1 construct: gene APP; Aβ40 fibrils
The assay is described as follows: fluorescence titration of […] probe with fibrils. Type of assay: binding.

For assay [2], the target named is T2, Aβ42 (amyloid beta 42) fibrils (Homo sapiens, UniProt P05067).
T2 construct: gene APP; Aβ42 fibrils
The assay is described as follows: fluorescence titration of […] probe with fibrils. In kind it is binding.

The term Kd denotes the constant that tells how readily two partners part at equilibrium. A lower Kd goes with higher affinity.

T2 sequence (P05067 672-713 limits assumed): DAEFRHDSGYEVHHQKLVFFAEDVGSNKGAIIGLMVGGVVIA
T1 sequence (P05067 672-711 limits assumed): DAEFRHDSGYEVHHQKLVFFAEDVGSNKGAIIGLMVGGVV

For the molecule `CN(C)c1ccc(-c2ccc3cc(-c4nc5ccccc5s4)c(=N)oc3c2)cc1` [ICTAD-1], the Kd in assay [1] was determined as 6.27 µM; in assay [2], 3.78 µM.
